Experimental data: ChEMBL document CHEMBL1671795, “Evaluation of endogenous fatty acid amides and their synthetic analogues as potential anti-inflammatory leads” (Bioorg Med Chem, 2011)

Assays:
HaCaT [1] = assay: Antiinflammatory activity against IFN-gamma-stimulated human HaCaT cells assessed as inhibition of chemokine MDC production at 50 to 100 uM after 18 hrs by ELISA; assay type: functional, cell-based
RAW264.7 [2] = assay: Cytotoxicity against mouse RAW264.7 cells at 50 uM after 24 hrs by MTT assay; assay type: cell-based; details: raw264.7, 24 h
HaCaT [3] = assay: Cytotoxicity against human HaCaT cells at 50 to 100 uM after 24 hrs by MTT assay; assay type: cell-based
RAW264.7 [4] = assay: Cytotoxicity against mouse RAW264.7 cells at 100 uM after 24 hrs by MTT assay; assay type: cell-based; details: raw264.7, 24 h
RAW264.7 [5] = assay: Antiinflammatory activity against LPS-stimulated mouse RAW264.7 cells assessed as inhibition of NO production at 3.125 to 25 uM after 24 hrs by Griess method; assay type: functional, cell-based

SMILES	Activity (HaCaT [1])	Activity (RAW264.7 [2])	Activity (HaCaT [3])	Activity (RAW264.7 [4])	Activity (RAW264.7 [5])
CCCCCCC/C=C/C(=O)CCCCCCCC(=O)NCCCl	Non-toxic	Toxic	Toxic	Toxic	
CCCCCCCCCCCCCCCC(=O)NC(C)C [HEXADECANOIC ACID ISOPROPYLAMIDE]	Non-toxic		Toxic		
CCCCCCC/C=C/C(=O)CCCCCCCC(=O)NCCc1ccc(O)c(O)c1	Non-toxic	Toxic	Toxic	Toxic	
CCCCCCCCCCCCCCCC(=O)NCCCl	Non-toxic		Toxic		
CCCCCCCC/C=C\CCCCCCCC(=O)N[C@H](C)CO	Non-toxic		Toxic		
CCCCCCCC/C=C/C(=O)CCCCCCC(=O)NCC(O)CO (racemic)	Non-toxic	Toxic	Toxic	Toxic	
CCCCCCCC/C=C/C(=O)CCCCCCC(=O)NCCCl	Non-toxic	Toxic	Toxic	Toxic	
CC/C=C\C/C=C\C/C=C\CCCCCCCC(=O)NC(C)C	Non-toxic		Toxic		
CCCCCCCC/C=C/C(=O)CCCCCCC(=O)NCCc1c[nH]c2ccc(O)cc12	Non-toxic	Toxic	Toxic	Toxic	
CC/C=C\C/C=C\C/C=C\CCCCCCCC(=O)NCCO	Non-toxic		Toxic		
CCCCCCCC(=O)/C=C/CCCCCCCC(=O)NCCCl	Non-toxic	Toxic	Toxic	Toxic	
CCCCCCCC/C=C\CCCCCCCCCCCC(=O)NCC(O)CO (racemic)	Non-toxic		Toxic		
CCCCCCCCCCCCCCCC(=O)N[C@H](C)CO	Non-toxic		Toxic		
CCCCCCCCC(=O)/C=C/CCCCCCC(=O)NCCCl	Non-toxic	Toxic	Toxic	Toxic	Dose-dependent effect
CCCCCCCC/C=C\CCCCCCCC(=O)NCCCl	Non-toxic		Toxic		
CCCCC/C=C\C/C=C\CCCCCCCC(=O)NCC(=O)O [LINOLEOYL GLYCINE]	Non-toxic		Toxic		
CC/C=C\C/C=C\C/C=C\CCCCCCCC(=O)NCC(=O)O	Non-toxic		Toxic		
CCCCCCC/C=C/C(=O)CCCCCCCC(=O)N[C@H](C)CO	Non-toxic	Toxic	Toxic	Toxic	
CCCCCCC/C=C/C(=O)CCCCCCCC(=O)NCCO	Non-toxic	Toxic	Toxic	Toxic	
CCCCCCCCC(=O)/C=C/CCCCCCC(=O)NC(C)C	Non-toxic	Toxic	Toxic	Toxic	Dose-dependent effect

SMILES	Activity (HaCaT [1])	Activity (RAW264.7 [2])	Activity (HaCaT [3])	Activity (RAW264.7 [4])	Activity (RAW264.7 [5])
CC/C=C\C/C=C\C/C=C\CCCCCCCC(=O)NCC(O)CO (racemic)	Non-toxic		Toxic		
CCCCCCCC/C=C\CCCCCCCC(=O)NCCO [OLEOYLETHANOLAMIDE]	Non-toxic		Toxic		
CCCCC/C=C\C/C=C\CCCCCCCC(=O)NC(C)C	Non-toxic		Toxic		
CCCCCCCC/C=C\CCCCCCCC(=O)NCC(O)CO (racemic)	Non-toxic		Toxic		
CCCCC/C=C\C/C=C\CCCCCCCC(=O)NCCO [LINOLEOYLETHANOLAMIDE]	Non-toxic		Toxic		
CCCCCCC/C=C/C(=O)CCCCCCCC(=O)NCC(=O)O	Non-toxic	Toxic	Toxic	Toxic	Dose-dependent effect
CCCCCCCC(=O)/C=C/CCCCCCCC(=O)NCCc1ccc(O)c(O)c1	Non-toxic	Toxic	Toxic	Toxic	
CCCCCCCC/C=C\CCCCCCCC(=O)NC(C)C	Non-toxic		Toxic		
CCCCCCCCCCCCCCCC(=O)NCC(O)CO (racemic)	Non-toxic		Toxic		
CCCCCCCC(=O)/C=C/CCCCCCCC(=O)NCC(O)CO (racemic)	Non-toxic	Toxic	Toxic	Toxic	
CCCCCCCC/C=C\CCCCCCCCCCCC(=O)NCCCl	Non-toxic		Toxic		
CCCCCCCC/C=C\CCCCCCCCCCCC(=O)NC(C)C	Non-toxic		Toxic		
CCCCCCCCC(=O)/C=C/CCCCCCC(=O)N[C@H](C)CO	Non-toxic	Toxic	Toxic	Toxic	Dose-dependent effect
CCCCCCCC(=O)/C=C/CCCCCCCC(=O)NCCO	Non-toxic	Toxic	Toxic	Toxic	
CCCCCCCC/C=C/C(=O)CCCCCCC(=O)NCCO	Non-toxic	Toxic	Toxic	Toxic	
CCCCC/C=C\C/C=C\CCCCCCCC(=O)N[C@H](C)CO	Non-toxic		Toxic		
CCCCCCCC/C=C\CCCCCCCCCCCC(=O)NCCO	Non-toxic		Toxic		
CCCCCCC/C=C/C(=O)CCCCCCCC(=O)NCC(O)CO (racemic)	Non-toxic	Toxic	Toxic	Toxic	
CC/C=C\C/C=C\C/C=C\CCCCCCCC(=O)NCCc1c[nH]c2ccc(O)cc12	Non-toxic		Toxic		
CCCCCCCC/C=C/C(=O)CCCCCCC(=O)NC(C)C	Non-toxic	Toxic	Toxic	Toxic	

SMILES	Activity (HaCaT [1])	Activity (RAW264.7 [2])	Activity (HaCaT [3])	Activity (RAW264.7 [4])	Activity (RAW264.7 [5])
CCCCCCCCC(=O)/C=C/CCCCCCC(=O)NCC(O)CO (racemic)	Non-toxic	Toxic	Toxic	Toxic	Dose-dependent effect
CCCCCCCC/C=C/C(=O)CCCCCCC(=O)NCCc1ccc(O)c(O)c1	Non-toxic	Toxic	Toxic	Toxic	
CCCCCCCC(=O)/C=C/CCCCCCCC(=O)N[C@H](C)CO	Non-toxic	Toxic	Toxic	Toxic	
CCCCCCCCC(=O)/C=C/CCCCCCC(=O)NCCc1c[nH]c2ccc(O)cc12	Non-toxic	Toxic	Toxic	Toxic	Dose-dependent effect
CCCCC/C=C\C/C=C\CCCCCCCC(=O)NCC(O)CO (racemic)	Non-toxic		Toxic		
CCCCCCCC/C=C/C(=O)CCCCCCC(=O)N[C@H](C)CO	Non-toxic	Toxic	Toxic	Toxic	
CCCCCCCC(=O)/C=C/CCCCCCCC(=O)NC(C)C	Non-toxic	Toxic	Toxic	Toxic	
CCCCCCCC/C=C\CCCCCCCC(=O)NCC(=O)O [OLEOYL GLYCINE]	Non-toxic		Toxic		
CCCCCCCCCCCCCCCC(=O)NCC(=O)O [PALMITOYL GLYCINE]	Non-toxic		Toxic		
CCCCCCCC/C=C\CCCCCCCCCCCC(=O)N[C@H](C)CO	Non-toxic		Toxic		
CCCCCCCC/C=C/C(=O)CCCCCCC(=O)NCC(=O)O	Non-toxic	Toxic	Toxic	Toxic	Dose-dependent effect
CC/C=C\C/C=C\C/C=C\CCCCCCCC(=O)O [LINOLENIC ACID]	Non-toxic		Toxic		
CC/C=C\C/C=C\C/C=C\CCCCCCCC(=O)NCCCl	Non-toxic		Toxic		
CCCCCCC/C=C/C(=O)CCCCCCCC(=O)NC(C)C	Non-toxic	Toxic	Toxic	Toxic	
CC/C=C\C/C=C\C/C=C\CCCCCCCC(=O)N[C@H](C)CO	Non-toxic		Toxic		
CCCCCCCCC(=O)/C=C/CCCCCCC(=O)NCCO	Non-toxic	Toxic	Toxic	Toxic	Dose-dependent effect
CCCCCCCCCCCCCCCC(=O)NCCO [PALMIDROL]	Non-toxic		Toxic		
CCCCCCCC(=O)/C=C/CCCCCCCC(=O)NCCc1c[nH]c2ccc(O)cc12	Non-toxic	Toxic	Toxic	Toxic	
CCCCC/C=C\C/C=C\CCCCCCCC(=O)NCCCl	Non-toxic		Toxic		
CCCCCCC/C=C/C(=O)CCCCCCCC(=O)NCCc1c[nH]c2ccc(O)cc12	Non-toxic	Toxic	Toxic	Toxic	
